Test [1] has as its system regenerating mdx TA muscles. Briefly: Cardiotoxin-induced injury of TA muscle in mdx mice, intramuscular treatment. It is filed as in vivo, mouse. The source says:
Previously, the inventors observed that dystrophin- or Dag1-deficient muscles generate reduced numbers of Pax7-expressing and Myog-expressing cells following CTX-injury.
PTP1b inhibitor was concurrently administered with cardiotoxin into mdx TA muscles and supplemented again 2 days after the injury (FIG. 13A). To assess the muscle stem cell function after injury and the regenerative capacity of the treated mdx muscles, the inventors examined the histology of the regenerating muscles 10 days post cardiotoxin injection. Whereas the control vehicle treated muscles still contained large areas of necrotic fibers (msIgG+), the muscles treated with PTP1b inhibitors were better regenerated as evidenced by the presence of 50% […] Myh3-expressing myofibers (FIG. 13B). […] These findings are consistent with PTP1b inhibition inducing an increase in EGFR signaling and accelerated de novo myofiber formation in regenerating mdx muscles (FIG. 14).
Electroporation and Cardiotoxin Injury. Intramuscular (i.m.) cardiotoxin injections (Latoxan, 50 μl of 10 μM solution in saline) were injected directly into the right TA muscle through the skin under general anesthesia. For pharmacological inhibition, Lapatinib ditosylate (1 mM in DMSO; Santa Cruz Biotechnology), the PTP1b inhibitor CAS 765317-72-4 (10 mM in DMSO; Santa Cruz Biotechnologies) was mixed into the cardiotoxin solution for a final concentration of 1 μM or 20 μM, respectively; equal dilution of DMSO was used as vehicle control. Supplemental injection of inhibitors (20 μL of 2.5 μM of Lapatibin or 50 μM of PTP1b inhibitor diluted in saline) was performed 2 days after cardiotoxin injection.
Muscle samples were embedded in OCT embedding compound and frozen in liquid nitrogen cooled isopentane and cryosectioned in 12-μm slices. Cross-sections were washed once with PBS and fixed in 2% PFA 10 min, permeabilized with 0.1% Triton X-100/0.15 M Glycine/PBS for 10 min and extensively washed with PBS. Samples were blocked using M.O.M. Blocking reagent (Vector) for 2 h followed by additional blocking in 5% NGS/2% BSA at 4° C. over night. Primary antibodies were applied in blocking at 4° C. over night. Samples were washed extensively in PBS and secondary antibodies were applied in PBS (Alexa Flour 546, 647) for 1 h at room temperature. Following PBS washes, cross-sections were counterstained with DAPI ([…]) for 10 min and mounted with Permaflour (Fisher).
Histological Analysis of Muscle Sections. For Fiber type analysis, non-fixed samples were washed with PBS and blocked in 10% normal goat serum (NGS) for 1 hr at room temperature. Primary antibodies were applied in 10% NGS for 2 h at room temperature. Sections were washed extensively with PBS and secondary antibodies were applied in PBS for 1 h at room temperature. Following PBS washes, sections were counterstained with DAPI for 10 min and mounted with Permaflour. Antibodies were as follows: mouse anti-MyH3 (clone F1.652, DSHB), mouse anti-MyH4 (clone BF-F3, DSHB).
For analysis of myofiber Feret's diameter, non-fixed samples were washed with PBS and stained with Wheat Germ Agglutinin Alexa 647 conjugate (Fisher) for 1 h at room temperature. Samples were washed once with PBS and counterstained with DAPI. Samples were washed with PBS and mounted with Permaflour. Images were taken immediately following staining. Minimum fiber Feret measurement was performed using the SMASH software in MATLAB 2015a as described in Smith, L. R., and Barton, E. R. (2014) SMASH—semi-automatic muscle analysis using segmentation of histology: a MATLAB application. Skelet. Muscle 4, 21, which is incorporated herein by reference. Samples with significant staining artifacts were excluded from automated analyses.

For a further test, the system named is satellite stem cells. Briefly: EDL myofiber culture, satellite stem cell divisions (Myf5-Cre/R26R-eYFP, wild type). As to conditions: for Average number of asymmetric divisons/fiber / Proportion of YFP- divisions that are asymmetric divisions: WT myofibers, 42 h of culture. It is filed as cell-based, mouse. As for the experimental part:
EGFR Signaling Regulates Asymmetric Satellite Stem Cell Divisions. To assess the role of EGFR in asymmetric division, the inventors cultured satellite cells in myofibers isolated from Extensor digitorum longus (EDL) muscles from Myf5-Cre/R26R-eYFP mice and performed both loss-of-function and gain-of-function experiments. Isolated myofibers were first cultured for 42 h with and without treatment with the Lapatinib, a specific inhibitor of EGFR signaling.
EDL fiber Culture and siRNA Transfection. Myofiber culture was performed as described in Dumont, N. A., et al. “Dystrophin expression in muscle stem cells regulates their polarity and asymmetric division.” Nat. Med. (2015) 21:1455-63, which is incorporated herein by reference. Briefly, EDL were carefully dissected and incubated in DMEM with 2% L-glutamine, 4.5% glucose, and 110 mg/mL sodium pyruvate (Gibco) containing 0.2% collagenase I (Sigma) for 45 min. Myofibers were isolated using gentle trituration with a glass pipet. Myofibers were cultured for 36, 42, or 72 h in DMEM containing 20% FBS (Wisent), 1% chick embryo extract (MP Biomedicals), and 2.5 ng/ml bFGF (Cedarlane). For pharmacological inhibition, Lapatinib ditosylate (1 mM in DMSO; Santa
Cruz Biotechnology), PTP1b inhibitor CAS 765317-72-4 (10 mM in DMSO; Santa Cruz Biotechnologies) was added to the culture medium for a final concentration of 1 μM or 10 μM, respectively; equal dilution of DMSO was used as vehicle control.
Transfection of satellite cells on myofibers was performed using lipofectamine RNAimax (Life Technologies) and validated Smartpool siRNAs for EGFR, Aurka, or scramble (SCR) (Dharmacon). Two transfections were performed at 4 h and 16 h after isolation of the myofibers as described in Le Grand, et al. (2009) Wnt7a activates the planar cell polarity pathway to drive the symmetric expansion of satellite stem cells. Cell Stem Cell 4, pp 535-547, which is incorporated herein by reference. Knockdown efficiencies of the siRNA were validated in myoblasts by western blot and qRT-PCR.

Consider “EGF: human recombinant EGF protein (Life Technologies), direct activator of the EGFR pathway”, for which the “increase in Pax7-expressing cells” value in test [1] (10 ng recombinant EGF IM at CTX injury and 2 d after, 10 days post injury, FIG. 5B) was found to be 26%. The “increase in the numbers of Myog-expressing cells” value in test [1] (10 ng recombinant EGF IM at CTX injury and 2 d after, 10 days post injury, FIG. 5C) worked out at 50%. Further, in test [1] (EGF-treated vs vehicle-injected controls, 10 days post injury), the “Feret's diameter of regenerating myofibers” value is given as “an increase in Feret's diameter”. In the test with satellite stem cells (42 h culture, recombinant EGF 100 ng/mL vs vehicle, FIG. 2A), the “increase in the rate of asymmetric satellite stem cell division” value is on record as 2.5 fold. For the same compound, the “increase in asymmetric division, WT satellite cells” value with satellite stem cells (42 h culture, recombinant EGF vs vehicle, FIG. 4A) came to 29%. In the test with satellite stem cells, the “Average number of asymmetric divisons/fiber” value came out at 0.939 and the “Proportion of YFP- divisions that are asymmetric divisions” value came to 70.86%.
`CCc1oc2cc(S(=O)(=O)Nc3ccc(S(=O)(=O)Nc4nccs4)cc3)ccc2c1C(=O)c1cc(Br)c(O)c(Br)c1` [PTP1b inhibitor, 3-(3,5-dibromo-4-hydroxy-benzoyl)-2-ethyl-benzofuran-6-sulfonicacid-(4-(thiazol-2-ylsulfamyl)-phenyl)-amide, reference compound]: the “fewer Myh3-expressing myofibers vs vehicle” value in test [1] (PTP1b inhibitor with cardiotoxin and again 2 days after, 10 days post injection, FIG. 13B) was determined as 50%. In addition, the “increase in muscle mass compared to vehicle treated controls” value in test [1] (PTP1b inhibitor, 10 days post cardiotoxin, FIG. 13C) is recorded as 14%. Further, the “numbers of satellite cells (Pax7+)” value in test [1] (PTP1b inhibitor, 10 days post cardiotoxin, FIG. 13F) is reported as “increased numbers of satellite cells”. Further, the “increase on average in Feret's diameters of myofibers compared to control muscles” value in test [1] (PTP1b inhibitor, 10 days post cardiotoxin, FIGS. 13D and E) is 2 fold. For the same compound, in the test with satellite stem cells, the “Average number of asymmetric divisons/fiber” value was determined as 0.988 and the “Proportion of YFP- divisions that are asymmetric divisions” value came to 66.70%.
